Test results: US12240857B2 (priority 2017, dated 2025)
Like-named read-outs stand apart in the source and are kept apart here.

Columns and labels:
[1] = test system: EBOV mucin-domain-deleted glycoprotein pseudotyped VSV; test: microbe, parasite or virus in culture; format: cell-based, Zaire ebolavirus; conditions: Zaire ebolavirus, Vero, read-out: EC50 EBOV
[2] = test system: BDBV mucin-domain-deleted glycoprotein pseudotyped VSV; test: microbe, parasite or virus in culture; format: cell-based, Bundibugyo ebolavirus; conditions: Vesicular stomatitis virus, Vero, read-out: EC50 BDBV
in vitro = conditions: African green monkey, CC50

| Structure (SMILES) | EC50 [1] | EC50 [2] | CC50 (in vitro) | EC50 ([1]; 24 h) | EC50 ([2]; 24 h) |
| --- | --- | --- | --- | --- | --- |
| O=C(N1CCC2(CCN(Cc3ccccc3)C2)C1)C12CC3CC(C1)CC(c1ccccc1)(C3)C2 (stereo not shown) [Example A1, 2-benzyl-7-[(3-phenyladamantan-1-yl)carbonyl]-2,7-diazaspiro[4.4]nonane] | 220 nM | 250 nM | 5800 nM |  |  |
| O=C(CNC(=O)C12CC3CC(C1)CC(c1ccccc1)(C3)C2)N1CCC2(CCN(Cc3ccccc3)C2)C1 (stereo not shown) [Example A2] | 300 nM | 390 nM | 8500 nM |  |  |
| COC(=O)c1ccc(COc2ccccc2CN2CCN(C(=O)CNC(=O)C34CC5CC(C3)CC(c3ccccc3)(C5)C4)CC2)cc1 [Example A3] | 30 nM | 1240 nM | > 3000 nM |  |  |
| COC(=O)c1ccc(COc2ccccc2CN2CCN(C(=O)CNC(=O)CC34CC5CC(C3)CC(c3ccccc3)(C5)C4)CC2)cc1 [Example A4] | 190 nM | 1240 nM | > 3000 nM |  |  |
| COC(=O)c1ccc(COc2ccccc2CN2CCN(C(=O)CNC(=O)C34CC5CC(CC3C5)C4)CC2)cc1 [Example A5] | 1400 nM | 3900 nM | > 3000 nM |  |  |
| O=C(CNC(=O)C12CC3CC(C1)CC(c1ccccc1)(C3)C2)NC1CCN(Cc2ccccc2)CC1 [Example A6] | 210 nM | 250 nM | 16800 nM |  |  |
| O=C(CNC(=O)C12CC3CC(C1)CC(c1ccccc1)(C3)C2)N[C@@H]1CCN(Cc2ccccc2)C1 [Example A7] | 480 nM | 840 nM | > 10000 nM |  |  |
| O=C(CNC(=O)C12CC3CC(C1)CC(c1ccccc1)(C3)C2)N1CC2CC1CN2Cc1ccccc1 (stereo not shown) [Example A8] | 190 nM | 220 nM | > 10000 nM |  |  |
| O=C(N1CC2(CN(Cc3ccccc3)C2)C1)C12CC3CC(C1)CC(c1ccccc1)(C3)C2 [Example A9] | 230 nM | 290 nM | 10800 nM |  |  |
| O=C(N1CC2(CCN(Cc3ccccc3)C2)C1)C12CC3CC(C1)CC(c1ccccc1)(C3)C2 [Example A10] | 240 nM | 210 nM | 6900 nM |  |  |
| O=C(CC12CC3CC(C1)CC(c1ccccc1)(C3)C2)NCC(=O)NC1CCN(Cc2ccccc2)CC1 [Example A12] | 360 nM | 430 nM | 2500 nM |  |  |
| O=C(CC12CC3CC(C1)CC(c1ccccc1)(C3)C2)NCC(=O)N[C@@H]1CCN(Cc2ccccc2)C1 [Example A13] | 320 nM | 320 nM | 2300 nM |  |  |
| O=C(CC12CC3CC(C1)CC(c1ccccc1)(C3)C2)NCC(=O)N1CC2CC1CN2Cc1ccccc1 (stereo not shown) [Example A14] | 200 nM | 230 nM | 6200 nM |  |  |
| O=C(N[C@H]1CCN(Cc2ccccc2)C1)C12CC3CC(C1)CC(c1ccccc1)(C3)C2 [Example A15] | 1700 nM | 2600 nM | > 10000 nM |  |  |
| O=C(CNC(=O)C12CC3CC(C1)CC(c1ccccc1)(C3)C2)N1CCN(Cc2ccccc2)CC1 [Example A16] | 110 nM | 350 nM | 12900 nM |  |  |
| O=C(CC12CC3CC(C1)CC(c1ccccc1)(C3)C2)NCC(=O)N1CCN(Cc2ccccc2)CC1 [Example A17] | 930 nM | 480 nM | > 10000 nM |  |  |
| O=C(N[C@@H]1CCN(Cc2ccccc2)C1)C12CC3CC(C1)CC(c1ccccc1)(C3)C2 [Example A19] | 290 nM | 440 nM | 3900 nM |  |  |
| O=C(N1CC2CC1CN2Cc1ccccc1)C12CC3CC(C1)CC(c1ccccc1)(C3)C2 (stereo not shown) [Example A20] | 490 nM | 410 nM | 10600 nM |  |  |
| O=C(CC12CC3CC(C1)CC(c1ccccc1)(C3)C2)N[C@@H]1CCN(Cc2ccccc2)C1 [Example A24] | 290 nM | 290 nM | 7200 nM |  |  |
| CN1CCN(C(=O)C23CC4CC(C2)CC(c2ccccc2)(C4)C3)CC1 [Example A25] | 450 nM | 190 nM | > 10000 nM |  |  |
| CN1CCC(N(C)C(=O)C23CC4CC(C2)CC(c2ccccc2)(C4)C3)CC1 [Example A27] | 280 nM | 140 nM | > 10000 nM |  |  |
| O=C(N1CCN(Cc2ccccc2)CC1)C12CC3CC(CC1C3)C2 [Example A28] | > 10000 nM | > 10000 nM | > 10000 nM |  |  |
| O=C(N1CCN(Cc2ccccc2)CC1)C12CC3CC(C1)CC(c1ccccc1)(C3)C2 [Example A29] | 340 nM | 270 nM | 5800 nM |  |  |
| O=C(CC12CC3CC(C1)CC(c1ccccc1)(C3)C2)N1CCN(Cc2ccccc2)CC1 [Example A30] | 340 nM | 220 nM | 7500 nM |  |  |
| O=C(C1C2CC3CC(C2)CC1C3)N1CCN(Cc2ccccc2)CC1 (stereo not shown) [Example A31] | > 10000 nM | > 10000 nM | > 10000 nM |  |  |
| O=C(CC12CC3CC(C1)CC(c1ccccc1)(C3)C2)NC1CCN(Cc2ccccc2)CC1 [Example A32] | 200 nM | 260 nM | 1600 nM |  |  |
| O=C(CC12CC3CC(C1)CC(c1ccccc1)(C3)C2)N1CC2CC1CN2Cc1ccccc1 (stereo not shown) [Example A33] | 320 nM | 300 nM | 2200 nM |  |  |

| Structure (SMILES) | EC50 [1] | EC50 [2] | CC50 (in vitro) | EC50 ([1]; 24 h) | EC50 ([2]; 24 h) |
| --- | --- | --- | --- | --- | --- |
| O=C(N[C@@H]1CCCN(Cc2ccccc2)C1)C12CC3CC(C1)CC(c1ccccc1)(C3)C2 [Example A34] | 170 nM | 220 nM | 1100 nM |  |  |
| CN1CC(NC(=O)C23CC4CC(C2)CC(c2ccccc2)(C4)C3)C1 [Example A35] | 280 nM | 220 nM | > 10000 nM |  |  |
| O=C(NC1CN(Cc2ccccc2)C1)C12CC3CC(C1)CC(c1ccccc1)(C3)C2 [Example A36] | 510 nM | 300 nM | 4300 nM |  |  |
| CN1CC[C@@H](NC(=O)C23CC4CC(C2)CC(c2ccccc2)(C4)C3)C1 [Example A37] | 230 nM | 240 nM | > 10000 nM |  |  |
| CN1CCC[C@@H](NC(=O)C23CC4CC(C2)CC(c2ccccc2)(C4)C3)C1 [Example A38] | 250 nM | 190 nM | > 10000 nM |  |  |
| CN1CC(NC(=O)CC23CC4CC(C2)CC(c2ccccc2)(C4)C3)C1 [Example A39] | 510 nM | 210 nM | 19100 nM |  |  |
| CN1CC[C@@H](NC(=O)C23CC4CC(C)(C2)CC(c2ccccc2)(C4)C3)C1 (stereo partly shown) [Example A41] | 103 nM | 180 nM | 13600 nM |  |  |
| CN1CC(NC(=O)C23CC4CC(C)(C2)CC(c2ccccc2)(C4)C3)C1 (stereo not shown) [Example A42] | 121 nM | 190 nM | 13900 nM |  |  |
| CC12CC3CC(C(=O)N[C@@H]4CN5CCC4CC5)(C1)CC(c1ccccc1)(C3)C2 (stereo partly shown) [Example A44] | 90 nM | 190 nM | 11000 nM |  |  |
| CN(C)CCNC(=O)C12CC3CC(C)(C1)CC(c1ccccc1)(C3)C2 (stereo not shown) [Example A46] | 180 nM | 210 nM | 13500 nM |  |  |
| CC12CC3CC(C(=O)NCCN4CCOCC4)(C1)CC(c1ccccc1)(C3)C2 (stereo not shown) [Example A48] | 1040 nM | 2000 nM | 54900 nM |  |  |
| O=C(N1CCC(NCc2ccccc2)CC1)C12CC3CC(C1)CC(c1ccccc1)(C3)C2 [Example A49, N-Benzyl-1-[(3-phenyladamantan-1-yl)carbonyl]piperidin-4-amine] | 210 nM | 290 nM | 10000 nM |  |  |
| O=C(CC12CC3CC(CC(C3)C1)C2)N1CCC2(CCN(Cc3ccccc3)C2)C1 (stereo not shown) [Example A50, 2-(Adamantan-1-yl)-1-{7-benzyl-2,7-diazaspiro[4.4]nonan-2-yl}ethan-1-one] | 2900 nM | 3300 nM | 54900 nM |  |  |
| O=C(CC12CC3CC(CC(C3)C1)C2)NC1CCN(Cc2ccccc2)CC1 [Example A51] | 9000 nM | > 10000 nM | 10000 nM |  |  |
| O=C(CC12CC3CC(CC(C3)C1)C2)N[C@@H]1CCN(Cc2ccccc2)C1 [Example A52] | 4900 nM | 4000 nM | > 10000 nM |  |  |
| O=C(CC12CC3CC(CC(C3)C1)C2)NCC(=O)NC1CCN(Cc2ccccc2)CC1 [Example A54] | 4000 nM | 10000 nM | > 10000 nM |  |  |
| COC(=O)c1ccc(COc2ccccc2CN2CCC(NC(=O)CNC(=O)CC34CC5CC(CC(C5)C3)C4)CC2)cc1 [Example A55] | 2900 nM | 2600 nM | > 10000 nM |  |  |
| O=C(CC12CC3CC(CC(C3)C1)C2)NCC(=O)N[C@@H]1CCN(Cc2ccccc2)C1 [Example A56] | 3100 nM | 10000 nM | > 10000 nM |  |  |
| COC(=O)c1ccc(COc2ccccc2CN2CC3CC2CN3C(=O)CNC(=O)CC23CC4CC(CC(C4)C2)C3)cc1 (stereo not shown) [Example A58] | 650 nM | 8000 nM | > 10000 nM |  |  |
| NC1CCN(C(=O)C23CC4CC(C2)CC(c2ccccc2)(C4)C3)CC1 [Example A61] | 140 nM | 80 nM | > 10000 nM |  |  |
| O=C(N1CC2CCNC2C1)C12CC3CC(C1)CC(c1ccccc1)(C3)C2 (stereo not shown) [Example A62] | 160 nM | 110 nM | 30000 nM |  |  |
| O=C(N1CCC2(CCNC2)C1)C12CC3CC(C1)CC(c1ccccc1)(C3)C2 (stereo not shown) [Example A64] | 710 nM | 180 nM | > 10000 nM |  |  |
| O=C(N1CC2CC1CN2)C12CC3CC(C1)CC(c1ccccc1)(C3)C2 (stereo not shown) [Example A65] | 90 nM | 90 nM | > 10000 nM |  |  |
| O=C(N1CCCNCC1)C12CC3CC(C1)CC(c1ccccc1)(C3)C2 [Example A66] | 160 nM | 100 nM | > 10000 nM |  |  |
| c1ccn2c(CN3CCCCC3)c(C34CC5CC(CC(C5)C3)C4)nc2c1 [Example D37] |  |  |  | 8900 nM | 3200 nM |
| C#CCN1CCC(C(=O)Nc2cc(C34CC5CC(CC(C5)C3)C4)n[nH]2)CC1 [Example D38, N-[5-(adamantan-1-yl)-1H-pyrazol-3-yl]-1-(prop-2-yn-1-yl) piperidine-4-carboxamide] |  |  |  | 3700 nM | 6800 nM |
